Structures are written as SMILES. ≈ marks a conversion by molar mass, not a printed value. Read-outs that look alike come from different tables or passages of the source.

Common to all, as to type: cell-based
Test [1] concerns Enterococcus faecalis 5038 strain. Briefly: MIC for Enterococcus faecalis 5038 strain. As to conditions: read-out: MIC Enterococcus faecalis 5038.
Test [2] relates to Staphylococcus aureus 209P strain. Briefly: MIC for Staphylococcus aureus 209P strain. As to conditions: Staphylococcus aureus, read-out: MIC Straphyrococcus aureus 209P.
The test system of test [3] is Escherichia coli K-12 strain. The experiment in a line: MIC for Escherichia coli K-12 strain. As to conditions: Escherichia coli, K12STRAIN, read-out: MIC Escherichia coli K12.
Test [4] deals with Escherichia coli BE1121 strain. Briefly: MIC for Escherichia coli BE1121 strain. As to conditions: Escherichia coli, BE1121STRAIN, read-out: MIC Escherichia coli BE1121.
Test [5] deals with Enterococcus faecalis NCTC12201 strain (vancomycin-resistant Enterococcus: VRE). Briefly: MIC for Enterococcus faecalis NCTC12201 strain (VRE). As to conditions: read-out: MIC Enterococcus faecalis NCTC 12201 (VRE).
Test [6] concerns Staphylococcus aureus MRSA No. 17 (methicillin-resistant Staphylococcus aureus: MRSA). The experiment in a line: MIC for Staphylococcus aureus MRSA No. 17. As to conditions: read-out: MIC Straphyrococcus aureus MRSA No. 17 (MRSA).
Test [7] has as its system Clostridium difficile JCM1296 strain. The experiment in a line: microbe, parasite or virus in culture. As to conditions: Clostridioides difficile, JCM1296, read-out: MIC Clostridium difficile JCM1296.
Test [8] concerns Staphylococcus aureus Smith strain. Briefly: MIC for Staphylococcus aureus Smith strain. As to conditions: read-out: MIC Straphyrococcus aureus Smith.
The test system of test [9] is Clostridium perfringens PB6K strain. The experiment in a line: microbe, parasite or virus in culture. As to conditions: Clostridium perfringens, PB6KSTRAIN, read-out: MIC Clostridium perfringens PB6K, PB6K strain; CD medium, 37° C. overnight, 10% CO2-containing anaerobic conditions.
The mark [10] stands for this setting: 5038 strain, Heart Infusion Broth medium, 37° C. overnight, turbidity.
The mark [11] stands for this setting: 209P strain, regular bouillon medium, 37° C. overnight, turbidity.
The mark [12] stands for this setting: K-12 strain, regular bouillon medium, 37° C. overnight, turbidity.
The mark [13] stands for this setting: BE1121 strain, regular bouillon medium, 37° C. overnight, turbidity.
Setting [14] is: NCTC12201 strain (VRE), Heart Infusion Broth medium, 37° C. overnight, turbidity.
[15] abbreviates: MRSA No. 17, regular bouillon medium, 37° C. overnight, turbidity.
[16] abbreviates: Smith strain, regular bouillon medium, 37° C. overnight, turbidity.

Consider `CCCCCCCCNC(=O)N1C(=O)C(=C(O)c2ccccc2)c2ccccc21` [A031, N-(octylaminocarbonyl)-3-benzoyl-2-oxyindole], for which the MIC in test [1] (5038STRAIN) came out at 25 mg/L (≈ 63.7 µM); in [2] (209P), 0.25 mg/L (≈ 0.637 µM); in test [3], 256 mg/L (≈ 652 µM); in test [4], 256 mg/L (≈ 652 µM); in [5] it was 0.25 mg/L (≈ 0.637 µM); in test [6] (MRSA), 256 mg/L (≈ 652 µM). Further, the MIC in test [7] was 0.25 mg/L (≈ 0.637 µM); in [8], 0.5 mg/L (≈ 1.27 µM); in test [9], 0.25 mg/L (≈ 0.637 µM).
`CCCCCCCCCCOCC(O)=C1C(=O)N(C(=O)Nc2ccccc2)c2ccc(Br)cc21` [A035, N-(phenylaminocarbonyl)-5-bromo-3-decyloxyacetyl-2-oxyindole]: the MIC in test [1] (setting [10]) turned out to be 4 mg/L (≈ 7.55 µM); in test [2] (setting [11]) it was 64 mg/L (≈ 121 µM); in [3] (setting [12]), 128 mg/L (≈ 242 µM); in test [4] (setting [13]), 128 mg/L (≈ 242 µM); in [5] (setting [14]), 2 mg/L (≈ 3.78 µM); in [6] (setting [15]), 64 mg/L (≈ 121 µM). The MIC in test [7] came out at 0.5 mg/L (≈ 0.944 µM); in test [8] (setting [16]) it was 8 mg/L (≈ 15.1 µM); in test [9] it was 0.25 mg/L (≈ 0.472 µM).
On to `CCCCCCCCCC(O)=C1C(=O)N(C(=O)Nc2ccc(Br)cc2)c2ccccc21` [A039, N-(4-bromophenylaminocarbonyl)-3-decanoyl-2-oxyindole], for which the MIC in [1] (setting [10]), in test [2] (setting [11]), in test [3] (setting [12]), in test [4] (setting [13]), in [5] (setting [14]) and in [6] (setting [15]) was 256 mg/L (≈ 527 µM) each time. Besides, the MIC in test [7] worked out at 64 mg/L (≈ 132 µM); in test [8] (setting [16]) it was 256 mg/L (≈ 527 µM); in [9] it was 64 mg/L (≈ 132 µM).
Take `CCCCCCCCCCOC(C)C(=O)c1c(O)c2ccccc2oc1=O` (stereo not drawn) [B017, 3-(2-decyloxypropionyl)-4-hydroxycoumarin]: the MIC amounted to 1 mg/L (≈ 2.67 µM) in test [1] (5038STRAIN); 8 mg/L (≈ 21.4 µM) in test [2] (setting [11]); 256 mg/L (≈ 684 µM) in [3] (setting [12]); 256 mg/L (≈ 684 µM) in test [4] (setting [13]); 0.5 mg/L (≈ 1.34 µM) in [5]; 4 mg/L (≈ 10.7 µM) in test [6] (MRSA). Further, the MIC in test [7] is under 0.125 mg/L; in [8], 2 mg/L (≈ 5.34 µM); in test [9] it was 0.25 mg/L (≈ 0.668 µM).
In the case of `CCCCCCCCCCOCC(O)=C1C(=O)N(C(=O)Nc2ccc(F)cc2)c2ccccc21` [A041, N-(4-fluorophenylaminocarbonyl)-3-decyloxyacetyl-2-oxyindole], the MIC in test [1] (setting [10]) was 2 mg/L (≈ 4.27 µM); in test [2] (setting [11]) it was 256 mg/L (≈ 546 µM); in test [3] (setting [12]), 128 mg/L (≈ 273 µM); in [4] (setting [13]), 256 mg/L (≈ 546 µM); in test [5] (setting [14]), 4 mg/L (≈ 8.54 µM); in test [6] (setting [15]) it was 256 mg/L (≈ 546 µM). Moreover, the MIC in test [7] amounted to 0.5 mg/L (≈ 1.07 µM); in test [8] (setting [16]) it was 4 mg/L (≈ 8.54 µM); in test [9], 8 mg/L (≈ 17.1 µM).
`CCCCCCCCCCSCC(O)=C1C(=O)N(C(C)=O)c2ccc(Br)cc21` [A030, N-acetyl-5-bromo-3-decylthioacetyl-2-oxyindole]: the MIC amounted to 0.25 mg/L (≈ 0.534 µM) in test [1] (setting [10]); 2 mg/L (≈ 4.27 µM) in test [2] (setting [11]); 256 mg/L (≈ 546 µM) in [3] (setting [12]); 8 mg/L (≈ 17.1 µM) in test [4] (setting [13]); 0.25 mg/L (≈ 0.534 µM) in test [5] (setting [14]); 2 mg/L (≈ 4.27 µM) in test [6] (setting [15]). Besides, the MIC in [7] was under 0.125 mg/L; in test [8] (setting [16]), 0.25 mg/L (≈ 0.534 µM); in [9] it was under 0.125 mg/L.
As to `CCCCCCCCCC(=O)c1c(O)c2ccc(OC)cc2oc1=O` [B001, 3-decanoyl-4-hydroxy-7-methoxycoumarin], the MIC in [1] (setting [10]) was 64 mg/L (≈ 185 µM); in test [2] (setting [11]) it was 256 mg/L (≈ 739 µM); in [3] (setting [12]), 256 mg/L (≈ 739 µM); in [4] (setting [13]), 256 mg/L (≈ 739 µM); in test [5] (setting [14]) it was 64 mg/L (≈ 185 µM); in [6] (setting [15]), 256 mg/L (≈ 739 µM). Besides, the results for the MIC in test [7], in test [8] (setting [16]) and in [9] were 64 mg/L (≈ 185 µM), 128 mg/L (≈ 369 µM) and 64 mg/L (≈ 185 µM), respectively.
As for `CCCCCCCCCC(O)=C1C(=O)N(C(=O)OC(C)(C)C)c2cc(Cl)ccc21` [A003, N-Boc-3-decanoyl-6-chloro-2-oxyindole], the MIC in test [1] (setting [10]) is 128 mg/L (≈ 303 µM); in [2] (setting [11]) it was 256 mg/L (≈ 607 µM); in test [3] (setting [12]), 256 mg/L (≈ 607 µM); in test [4] (setting [13]), 128 mg/L (≈ 303 µM); in test [5] (setting [14]), 128 mg/L (≈ 303 µM); in [6] (setting [15]), 256 mg/L (≈ 607 µM). The results for the MIC in [7], in test [8] (setting [16]) and in test [9] were 0.5 mg/L (≈ 1.18 µM), 256 mg/L (≈ 607 µM) and 1 mg/L (≈ 2.37 µM), respectively.

Values taken from US9512075B2 (OKAYAMA UNIVERSITY, priority 2012, dated 2016).
